Measured values reported in patent publication US5510375A, “Coumarin derivatives as protease inhibitors and antiviral agents” (Warner-Lambert Company, priority 1993, dated 1996).
Like-named read-outs stand apart in the source and are kept apart here.

Assays:
HIV-1 Protease = target: T1, HIV-1 Protease (Human immunodeficiency virus type 1 group M subtype B, UniProt P04585); experiment: HIV Protease Inhibition (hydrolysis of undecapeptide Substrate III, HPLC); type: biochemical
T1 construct: purchased Bachem Bioscience Inc
Description: 1.0 mM dithiothreitol (DTT) was prepared fresh daily in 0.1% polyethylene glycol (mw 8000) 80 mM NaOAc, 160 mM NaCl, 1.0 mM EDTA, and brought to pH 4.7 with HCl.
The enzyme is obtained from Bachem Bioscience Inc. The undiluted enzyme is thawed from -80° C. and diluted 50-fold with DTT buffer. The solution is always kept at 0° C. on ice water and used in the experiment within 20 minutes after thawing.
Substrate III from Bachem Bioscience Inc. is the undecapeptide H-His-Lys-Ala-Arg-Val-Leu-p-Nitrophenylalanine-Glu-Ala-Norleucine-Ser-NH2 (>97% purity). A 200 μM stock solution in DTT buffer is prepared and stored on ice. Substrate solution is prepared fresh daily.
10 mM inhibitor (I) in dimethyl sulfoxide (DMSO) is diluted to 200 μM with DTT buffer. From the 200 μM stock solution is made a 10 μM stock solution with 2% DMSO in DTT buffer. The two inhibitor solutions are used to make final (I)=100, 50, 20, 10, 5, 0.5 and 0 μM with 2% DMSO in DTT buffer in each reaction well (total inhibitor volume of 50 μl).
To each reaction well is added 20 μl of substrate (final concentration of 40 μM), 50 μl of inhibitor (at a concentration such that final dilution will produce the test concentration) and 20 μl of DTT buffer. The reaction plate (96 wells) is incubated at 37° C. for at least 5 minutes.
10 μl of the diluted protease is added to the reaction well while the reaction plate is shaking. Once shaken for 10 seconds, the plate is returned to the heating block at 37° C. (Final reaction volume=100 μl)
The reaction is incubated for 5 minutes at 37° C. The reaction is stopped by placing the reaction plate on the shaker and adding 20 μl of 10% trifluoroacetic acid (TFA) and shaking for 10 seconds. The amount of proteolysis is then determined by separation of noncleaved substrate and two cleaved products with reverse-phase HPLC, while measuring absorbance at 220 nm to determine the relative peak areas of the three components. The relative peak areas are used to calculate % conversion to product as a function of inhibitor concentration. The data is plotted as % Control (the ratio of % conversion in the presence and absence of inhibitor×100) versus inhibitor concentration and fit with the equation Y=100/1+(X/IC50)^A, where IC50 is the inhibitor concentration at 50% inhibition and A is the slope of the inhibition curve.

HIV-1iiib = experiment: Anti-HIV-1 activity in H9 cells (acute infection, reverse transcriptase assay); type: cell-based; details: Human immunodeficiency virus 1, acute HIV-1iiib infection, multiplicity of infection 0.01, 4 and 7 days post infection, 0.2% DMSO, read-out: Therapeutic Concentration for 50% Protection of Cells
Description: Using the general methods of Pauwels et al., (J. Virol. Methods, 16: 171-185 (1987) and Mann et al. (AIDS Research and Human Retroviruses, 253-255 (1989)) anti-viral assays of acute HIV-1 infection were performed in the H9 cell line. Cultures were batch infected in 1 ml of RPM1 1640 media/10% fetal calf serum containing 10^7 cells and 10^5 infectious doses of HIV-1iiib for an effective multiplicity of infection of 0.01. After 2 hours of viral absorption, cells were washed once and plated in 96-well microtiter plates at a density of 10^4 cells per well. Test compounds were added to produce the desired concentration of drug and 0.2% DMSO in a final volume of 200 μl. Uninfected parallel cultures were maintained for XTT cytotoxicity assay at 7 days post infection. Cultures were tested for viral replication by reverse transcriptase assay at 4 and 7 days post infection.

HIV = details: R. Nagorny et al., AIDS, 7: 129-130 (1993); cited from earlier work
[1] = pH 4.7, 37° C., 40 μM substrate, 2% DMSO, 5 minutes, read-out: 50% Inhibition Concentration

SMILES | IC50 (HIV-1 Protease) [nM] | IC50 (HIV-1 Protease; [1]) [nM] | other results
COc1ccc2c(O)c(CCCCc3ccccc3OC)c(=O)oc2c1 [Example 22, 4-Hydroxy-7-methoxy-3-4-(2-methoxyphenyl)butyl!-2H-1-benzopyran-2-one] | 1400 |  | 
CCOC(=O)c1cccc(OCCCc2c(O)c3ccccc3oc2=O)c1 [Example 8, Ethyl 3-3-(4-hydroxy-2-oxo-2H-1-benzopyran-3-yl)propoxy!benzoate] |  |  | EC50 (HIV-1iiib): 58000 nM; IC50 (HIV-1 Protease; read-out: 50% Inhibition Concentration): 500 nM
COc1ccccc1CCCCc1c(O)c2ccc(O)cc2oc1=O [Example 43, 4,7-Dihydroxy-3-4-(2-methoxyphenyl)butyl!-2H-1-benzopyran-2-one] |  | 500 | 
COc1ccccc1CCCCc1c(O)c2cccc(C)c2oc1=O [Example 23, 4-Hydroxy-3-4-(2-methoxyphenyl)butyl!-8-methyl-2H-1-benzopyran-2-one] |  | 5000 | 
O=C(O)c1cccc(OCCCc2c(O)c3ccccc3oc2=O)c1 [Example 9, 3-3-(4-Hydroxy-2-oxo-2H-1-benzopyran-3-yl)propoxy!benzoic acid] |  | 5000 | 
O=c1oc2ccccc2c(O)c1CCCOc1cccc(Cl)c1 [Example 7, 3-3-(3-Chlorophenoxy)propyl!-4-hydroxy-2H-1-benzopyran-2-one] | 1300 |  | 
N#Cc1cccc(OCCCc2c(O)c3ccccc3oc2=O)c1 [Example 37, 3-3-(3-Cyanophenoxy)propyl!-4-hydroxy-2H-1-benzopyran-2-one] | 600 |  | 
COc1ccc(OCCCc2c(O)c3ccccc3oc2=O)cc1 [Example 4, 4-Hydroxy-3-3-(4-methoxyphenoxy)propyl!-2H-1-bensopyran-2-one] |  | 1900 | 
O=c1oc2ccccc2c(O)c1CCCOc1cccc(CO)c1 [Example 10, 4-Hydroxy-3-3-(3-hydroxymethylphenoxy)propyl!-2H-1-benzopyran-2-one] |  | 1200 | 
O=c1oc2ccccc2c(O)c1C(SC1CCCCC1)c1ccccc1 (stereo not drawn) [Example 42, 3-(Cyclohexylthio)phenylmethyl!-4-hydroxy-2H-1-benzopyran-2-one] | 400 |  | 
COc1ccccc1CCCCc1c(O)c2ccccc2oc1=O [Example 13, 4-Hydroxy-3-4-(2-methoxyphenyl)butyl!-2H-1-benzopyran-2-one] |  | 1700 | EC50 (HIV-1iiib): 13000 nM
CC(=O)CC(c1ccccc1)c1c(O)c2ccccc2oc1=O (stereo not drawn) [Warfarin, 3-(α-acetonylbenzyl)4-hydroxycoumarin] |  |  | inhibiting cell-free and cell-mediated HIV infection (HIV): inhibiting cell-free and cell-mediated HIV infection
O=c1oc2ccccc2c(O)c1CCCCc1ccccc1O [Example 14, 4-Hydroxy-3-4-(2-hydroxyphenyl)butyl!-2H-1-benzopyran-2-one] |  | 2800 | 
